Patent US20130059778A1, “Identification of a Genetic Risk Factor for Diabetes” (priority 2010, published 2013)

What was measured:
[1] = tested on: islets isolated from ankB (+/+) and (+/−) mice; test: Insulin secretion assay, islets from ankB(+/+) and (+/−) mice; type: cell-based, mouse; details: for potentiation of glucose-stimulated insulin release: Glp-1 100 nM
Procedure: Islets were isolated from ankB littermates and male Wistar rats by pancreatic perifusion as previously described (28). Islets were maintained in culture medium containing 11 mM glucose until the day of the assay. Insulin secretion was assayed in HEPES balanced salt solution (HBSS) (114 mM NaCl, 4.7 mM KCl, 1.2 mM KH2PO4, 1.16 mM MgSO4, 20 mM HEPES, 2.5 mM CaCl2, 25.5 mM NaHCO3, and 0.2% BSA, pH 7.2). Islets were pre-incubated HBSS containing 3 mM glucose for 2 hours. Insulin secretion was then measured by using static incubation for a 1 h period in HBSS containing 3 mM glucose. Islets were then transferred to HBSS containing 16.7 or 8 mM glucose for 1 hour, and then HBSS containing 16.7 or 8 mM glucose plus 0.1 mM carbachol or 100 nM Glp-1 for 1 hour. Following the incubations, islet samples were normalized for insulin content by extraction with 1 M acetic acid in 0.1% BSA. Static incubation samples and extract samples were analyzed for insulin concentrations via radioimmunoassay with the insulin Coat-a-Count kit (Diagnostic Products, Los Angeles). Values presented represent the mean values+/−SEM.

[2] = tested on: islets from ankB(+/+) and (+/−) mice; test: Intraislet calcium measurements using Fura-2; type: cell-based, mouse
Procedure: Islets from 8-10 month ankB(+/+) and (+/−) mice were isolated as described above and incubated overnight in medium containing 11 mM glucose. […] Islets were incubated 45 min at 37° C. Islets were then affixed to small open perifusion chamber (volume 150 μL) with a coverslip bottom using Puramatrix Peptide Hydrigel (BD Biosciences). Chamber was then mounted on a Zeiss Axiovert epifluorescence inverted microscope fitted with a Plan-Neofluar 16x/0.50 objective. The fluorescence (excitation at 355 or 380 nm) was recorded by a slow-scan charged-coupled device (CCD) camera (Andor Technology) and quantitated using AndorIQ software. All perifusions were performed at 37° C. using perfusion buffer containing either 3 mM glucose, 11 mM glucose, 30 mM KCl in 3 mM glucose, or 0.1 mM carbachol in 3 mM glucose. To assay carbachol effects in the absence of calcium, buffer containing 2 mM EGTA and 0 mM Ca^2+ was used. Data represent the mean+/−SEM of 3-7 individual islet recordings/animal using 6 animals/genotype. Significance was calculated using two-tailed T test.

wild type rat islets = test: Insulin secretion assay, rat islets treated with adenovirus (siRNA knockdown / rescue); type: cell-based; details: adenoviral delivery to knockdown islets; p=0.03, n=6
Procedure: INS-1-derived cell line 823/3 was cultured as described previously (28). Small interfering RNA (siRNA) sequences corresponding to rat ankyrin-B siRNA1: GGCCAGAAGATCTCAAGGA (SEQ ID NO:2), siRNA2: GCTGTGTAGCATTTTAACA (SEQ ID NO:3), or a control siRNA which is siRNA 1 mutated at three base sites: GGCCCGAAGAGCTCAAGGA (SEQ ID NO:4), were cloned into vector EHOO6 and used for construction of Ad-ankB siRNA recombinant adenoviruses by the methods described (29). Complementary DNAs encoding human ankyrin-B or ankyrin-B W/W (7, 8) were used to prepare recombinant adenoviruses (AdCMV-h ankB and h ankB RAN) using the AdEasy system (Stratagene catalog number 240010). An adenovirus containing the green fluorescent protein (GFP) gene (AdCMV-_GFP) was used as a control. Purified viruses were incubated with INS-1 823/3 cells or islets at multiplicities of infection (MOI) of 20-50 for 18 h. Assays were undertaken 72 h later.
Islets were isolated from ankB littermates and male Wistar rats by pancreatic perifusion as previously described (28). […] Insulin secretion was then measured by using static incubation for a 1 h period in HBSS containing 3 mM glucose. […] Static incubation samples and extract samples were analyzed for insulin concentrations via radioimmunoassay with the insulin Coat-a-Count kit (Diagnostic Products, Los Angeles). […]

Compound: C[N+](C)(C)CCOC(N)=O [carbachol]
- reduction in carbachol-stimulated insulin release ([1]; ankB(+/−) islets vs ankB(+/+), carbachol 0.1 mM, p=0.007, n=6): 40%
- potentiation of insulin release by carbachol ([1]; wild type islets, stimulatory glucose plus carbachol 0.1 mM): 2.1 fold
- reduction in Ca2+ release ([2]; ankB(+/−) islets, carbachol 0.1 mM in buffer containing 5 mM Ca2+): 64%
- reduction in intracellular Ca2+ release ([2]; ankB(+/−) vs ankB(+/+) islets, Ca2+-free buffer containing carbachol 0.1 mM): ~79%

Compound: full-length human ankyrin-B: full length 220 kD human ankyrin-B, siRNA-resistant, expressed from adenovirus
- rescue of impaired carbachol-mediated insulin release (wild type rat islets): −40%

Compound: glucagon-like peptide 1 [Glp-1]
- potentiation of glucose-stimulated insulin release ([1]; ankB(+/−) islets, p=0.01, n=6): 2.1 fold
- potentiation of glucose-stimulated insulin release ([1]; wild type animals): ~1.6 fold
